Assay results: PubChem BioAssay (NCI)
Values joined by “and” are separate entries in the source; they are usually repeats but may differ in a detail not shown here. Equal entries are not always repeated.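 Cultured in 96-well plates, cells were exposed to test compound for 48 hours across five concentrations. GI50 = concentration required for 50% inhibition of growth. TGI: concentration producing complete growth inhibition.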

Experiments:
Assay in all cases: NCI-60 cell line screen, 48 h
OVCAR-3 ovarian = tested on: OVCAR-3 ovarian
HCT-116 colon = tested on: HCT-116 colon
SK-OV-3 ovarian = tested on: SK-OV-3 ovarian
SF-295 CNS = tested on: SF-295 CNS
OVCAR-5 ovarian = tested on: OVCAR-5 ovarian
SF-539 CNS = tested on: SF-539 CNS
CAKI-1 renal = tested on: CAKI-1 renal
RXF 393 renal = tested on: RXF 393 renal
KM12 colon = tested on: KM12 colon

SMILES | TGI (OVCAR-3 ovarian) | TGI (HCT-116 colon) | TGI (SK-OV-3 ovarian) | TGI (SF-295 CNS) | TGI (OVCAR-5 ovarian) [µM] | TGI (SF-539 CNS) | TGI (CAKI-1 renal) | TGI (RXF 393 renal) | TGI (KM12 colon) | GI50 (OVCAR-3 ovarian) [µM] | GI50 (HCT-116 colon) [µM] | GI50 (SK-OV-3 ovarian) [µM] | GI50 (SF-295 CNS) [µM] | GI50 (OVCAR-5 ovarian) [µM] | GI50 (SF-539 CNS) [µM] | GI50 (CAKI-1 renal) | GI50 (RXF 393 renal) | GI50 (KM12 colon) [µM]
O=C(NC1CCC[C@H]1OC(=O)c1ccccc1)c1ccccc1 (stereo partly drawn) | > 100 µM | > 100 µM | > 100 µM | > 100 µM | > 100 | > 100 µM | > 100 µM | > 100 µM | > 100 µM | – | – | – | – | – | – | – | – | –
[N-]=[N+]=C(C(=O)CN1CCCC1=O)S(=O)(=O)c1ccccc1 | > 100 µM | > 100 µM | – | > 100 µM | > 100 | > 100 µM | – | > 100 µM | > 100 µM | – | – | – | – | – | – | – | – | –
CC(C)N1CC2CC(CN(C(=O)c3ccc(Cl)cc3)C2)C1 | > 100 µM | – | > 100 µM | > 100 µM | > 100 | > 100 µM | > 100 µM | > 100 µM | > 100 µM | – | – | – | – | – | – | – | – | –
COc1ccc(C(C2=C(O)CC(C)OC2=O)C2=C(O)CC(C)OC2=O)cc1 (stereo not drawn) | > 100 µM | > 100 µM | – | > 100 µM | > 100 | > 100 µM | > 100 µM | – | > 100 µM | – | – | – | – | – | – | – | – | –
CCC(O)CCCCCCCCCCCCCCC(=O)O (stereo not drawn) | > 100 µM | > 100 µM | > 100 µM | > 100 µM | > 100 | > 100 µM | > 100 µM | > 100 µM | > 100 µM | – | – | – | – | – | – | – | – | –
COc1nn(C)cc1Nc1nccc(-c2c[nH]c3c(NC(=O)[C@@H](C)N4CCN(C)CC4)cccc23)n1 | > 100 µM | > 100 µM | > 100 µM | 99.4 µM | > 100 | 38.4 µM | > 100 µM | 42.2 µM | > 100 µM | 56.1 | 34.3 | 44.2 | 28 | 42.5 | 18 | 29.2 µM | 16.6 µM | 37.6
C=CCC1(CN(C)C)CC/C(=C\c2ccc3c(c2)OCO3)C1=O (stereo not drawn) | > 100 µM | > 100 µM | – | > 100 µM | > 100 | > 100 µM | > 100 µM | > 100 µM | > 100 µM | – | – | – | – | – | – | – | – | –
O=C(CC12C3C4C1C1C2C3C41CC(=O)NO)NO (stereo not drawn) | > 100 µM | > 100 µM | – | > 100 µM | > 100 | > 100 µM | > 100 µM | – | > 100 µM | – | – | – | – | – | – | – | – | –
Cc1cc(OCc2ccc(C(F)(F)F)cc2)c2c(c1)C(=O)C=C(NCCN1CCCC1)C2=O | 6.47 µM | 3.9 µM | 10.6 µM | 4 µM | 12.3 | 3.24 µM | 4.83 µM | 2.94 µM | 15.4 µM | 2.52 | 1.85 | 3.45 | 1.88 | 3.39 | 1.68 | 1.79 µM | 1.37 µM | 4.39
CC1(c2ccc(F)cc2)C2C(=O)NC(=O)C1C(=O)NC2=O (stereo not drawn) | > 100 µM | – | > 100 µM | > 100 µM | > 100 | > 100 µM | > 100 µM | > 100 µM | > 100 µM | – | – | – | – | – | – | – | – | –
CSc1ccc(N2C(=O)C3c4[nH]c5ccccc5c4C4CCC(C(C)(C)C)CC4C3C2=O)cc1 (stereo not drawn) | > 100 µM | 18 µM | 32.7 µM | 33.4 µM | > 100 | 43.1 µM | 42.9 µM | 47.1 µM | > 100 µM | – | – | – | – | – | – | – | – | –
CCO/C=C\C12CCCC1NC(c1ccccc1)(c1ccccc1)O2 (stereo not drawn) | 55.7 µM | > 100 µM | > 100 µM | > 100 µM | 37 | 66 µM | 65.6 µM | 81.3 µM | > 100 µM | – | – | – | – | – | – | – | – | –
O=C(Nc1ccc(Br)cc1)C(=O)C(C(=O)c1ccc(Cl)c(Cl)c1)C1OC(=O)c2ccccc21 (stereo not drawn) | 67.3 µM | 25.9 µM | > 100 µM | 65.3 µM | 52.3 | – | 51.3 µM | 17.9 µM | 31.8 µM | – | – | – | – | – | – | – | – | –
Cc1cc(-c2ccccc2)nc(Nc2cc3ccccc3[nH]2)n1 | > 100 µM | > 100 µM | > 100 µM | > 100 µM | > 100 | > 100 µM | > 100 µM | – | > 100 µM | – | – | – | – | – | – | – | – | –
O=C1c2ccccc2C(=O)N1CC#CCO | > 100 µM | > 100 µM | > 100 µM | > 100 µM | > 100 | > 100 µM | > 100 µM | > 100 µM | > 100 µM | – | – | – | – | – | – | – | – | –
COc1cc(C2c3cc4c(cc3[C@@H](NC3CCN(Cc5ccccc5)CC3)C3COC(=O)[C@H]23)OCO4)cc(OC)c1O (stereo partly drawn) | 1.56 µM and 1.04 µM | 2.28 µM and 1.59 µM | 0.445 µM and 0.503 µM | 0.498 µM and 0.752 µM | 1.51 | 0.263 µM and 0.194 µM | 0.694 µM and 2 µM | 0.768 µM and 0.927 µM | 2.23 µM and 1.02 µM | – | – | – | – | – | – | 0.0372 µM and 0.277 µM | 0.185 µM and 0.399 µM | –
CCCCCCCCCCCCCCNCC(OC)OC | 32.6 µM | 26 µM | 33.1 µM | 34.1 µM | 27.8 | 30.9 µM | – | 28.9 µM | 26.7 µM | – | – | – | – | – | – | – | – | –
OC1OCC(COc2cc(Cl)c(Cl)cc2Cl)OC1O (stereo not drawn) | 69.5 µM | 42.1 µM | > 100 µM | > 100 µM | > 100 | > 100 µM | > 100 µM | – | > 100 µM | – | – | – | – | – | – | – | – | –
COc1ccc(N=NC2=C(O)CCC2=O)cc1 | > 100 µM | > 100 µM | > 100 µM | > 100 µM | > 100 | > 100 µM | > 100 µM | > 100 µM | > 100 µM | – | – | – | – | – | – | – | – | –
